According to US20220211680A1, “COMPOUNDS AND COMPOSITIONS FOR TARGETING MACROPHAGES AND OTHER MANNOSE-BINDING C-TYPE LECTIN RECEPTOR HIGH EXPRESSING CELLS AND METHODS OF TREATING AND DIAGNOSIS USING SAME” (priority 2014, published 2022):

Key:
[1] = system: luciferase-expressing M tuberculosis H37Rv strain (M.tb-Lux); experiment: Anti-bacterial activity against M.tb in human macrophages (luminescence); type: cell-based
[2] = system: CD206 expressing macrophages; experiment: Apoptosis induction (Annexin-V) in MOs and KS tumor tissue; type: cell-based
Protocol: (§1) CD206 targeting assays were conducted using both in vitro monocyte-derived CD206+ macrophages (MOs) and ex vivo fresh Kaposi Sarcoma (KS) tumor tissue (provided by the AIDS and Cancer Specimen Resource [ACSR]). Tilmanocept-Cy3 with/without a chemo-therapeutic agent (CTA) attached (tilmanocept-Cy3-CTA or tilmanocept-Cy3) interactions with cellular and tumor targets were tracked by flow cytometry and immuno-histochemistry to evaluate Cy3-tilmanocept uptake and targeting capability for delivery of drug into KS tumor cells and TAMs.

DC-SIGN (CD209) = DC-SIGN (CD209) (Homo sapiens, UniProt Q9NNX6); conditions: AF488-labeled tilmanocept, anti-DC-SIGN Ab staining
Protocol: The tissue sections were first deparaffinized with xylene, followed by rehydration with graded alcohols (100%, 95%). A heat-induced epitope retrieval procedure was carried out by heating the tissue slides in citrate buffer (pH 6.0) at 95° C. for 10 min (31). Each tissue section was rehydrated with PBS buffer, blocked (5% non-fat dry milk in PBS+0.01% sodium azide) for 3 h at room temperature, and then incubated with specific primary Abs using manufacturer-recommended dilutions in a humidified chamber at 4° C. overnight. After extensive washing with PBS, the sections were counter-stained with AF488-conjugated anti-mouse and AF549-conjugated anti-rabbit secondary Abs (double staining) for 1 h at room temperature. The sections were washed again extensively and stained with the nuclear DNA stain DAPI for 10 min at room temperature. After washing and drying at room temperature, the slides were examined by a Flow View 1000 Laser Scanning Confocal microscope (Olympus). The MFI of a randomly selected group of confocal images was quantified using a pixel intensity measurement (NIH Image J program).
FFPE lymph node tissue sections were subjected to the antigen retrieval procedure (see immunohistochemistry method above) followed by incubation with AF488-labeled tilmanocept and staining with anti-DC-SIGN Ab.

[3] = system: fresh Kaposi Sarcoma (KS) tumor tissue
Protocol: as §1

DC-SIGN (CD209), sequence (Q9NNX6 whole entry): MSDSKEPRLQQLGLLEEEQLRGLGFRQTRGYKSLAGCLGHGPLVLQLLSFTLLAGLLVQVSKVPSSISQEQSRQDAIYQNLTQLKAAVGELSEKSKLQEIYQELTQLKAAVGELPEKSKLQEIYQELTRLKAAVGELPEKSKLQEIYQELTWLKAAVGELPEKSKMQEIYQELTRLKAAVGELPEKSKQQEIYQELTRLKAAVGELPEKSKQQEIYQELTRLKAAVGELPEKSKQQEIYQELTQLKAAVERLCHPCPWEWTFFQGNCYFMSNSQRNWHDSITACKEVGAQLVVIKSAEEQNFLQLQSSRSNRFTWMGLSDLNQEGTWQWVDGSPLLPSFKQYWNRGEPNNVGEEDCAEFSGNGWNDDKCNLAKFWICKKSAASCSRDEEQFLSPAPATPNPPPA

With `NNC(=O)c1ccncc1` [INH, isoniazid] the “lowest concentration at which activity against M.tb is maintained” value [1] was 0.0312 µM.
For `COc1cccc2c1C(=O)c1c(O)c3c(c(O)c1C2=O)C[C@@](O)(C(=O)CO)C[C@@H]3O[C@H]1C[C@H](N)[C@H](O)[C@H](C)O1` [Docorubicin, doxorubicin], the “toxicity to CD206 expressing macrophages (Annexin levels, FIG. 17)” value [2] was “no toxicity” and the “apoptosis induction on MOs and in tumor tissue” value ([2]; Annexin-V, overnight) was “less effect”.
“dextran 3-[(2-aminoethyl)thio]propyl 17-carboxy-10,13,16-tris(carboxymethyl)-8-oxo-4-thia-7,10,13,16-tetraazaheptadec-1-yl 3-[[2-[[1-imino-2-(D-mannopyranosylthio)ethyl]amino]ethyl]thio]propyl ether complexes [Tilmanocept]” was tested, and the “binding to cells in lymph node tissue sections” value (DC-SIGN (CD209)) was “bind in clusters to a population of DC-SIGN-positive cells” and the “uptake in KS biopsy tissue culture” value [3] was “uptake co-localized with CD206+ macrophages”.
